Test results: patent publication US6538037B2, “Methods for preparation and use of 1α,24(S)-dihydroxyvitamin D2” (Bone Care International, Inc., priority 1991, dated 2003)

Key:
[1] = system: LNCAP; assay: Inhibition of cell proliferation, LNCAP; format: cell-based, human; conditions: 10^−11 M to 10^−7 M, 6-7 days
Procedure: (§1) The cell lines, LNCAP and PC-3, which are derived from human prostate adenocarcinoma, are seeded in six-well tissue culture plates at a density of about 50,000 cells/plate. After the cells have attached and stabilized, about 2-3 days, the medium is replenished with medium containing vehicle or the active vitamin D analogue 1α,24-(OH)2D2, at concentrations from 10^−11 M to 10^−7 M. Medium containing test analogue or vehicle is replaced every three days. After 6-7 days, the medium is removed, the cells are rinsed, precipitated with cold 5% trichloroacetic acid, and washed with cold ethanol. The cells are solubilized with 0.2 N sodium hydroxide, and the amount of DNA determined by standard procedures.

[2] = system: PC-3; assay: Inhibition of cell proliferation, PC-3; format: cell-based, human; conditions: 10^−11 M to 10^−7 M, 6-7 days
Procedure: as §1

[3] = system: LNCAP; assay: Cell differentiation, PSA production in LNCaP; format: cell-based, human; conditions: 10^−11 M to 10^−7 M, 6-7 days
Procedure: Using the techniques of Skowronski et al., 132 Endocrinology (1993) 1952-1960 and 136 Endocrinology (1995) 20-26, both of which are incorporated herein by reference, cells of the cell line, LNCaP, which is derived from a human metastatic prostate adenocarcinoma and known to express PSA, are seeded in six-well tissue culture plates at a density of about 50,000 cells/plate. After the cells have attached and stabilized, about 2-3 days, the medium is replenished with medium containing vehicle or the active vitamin D analogue, 1α,24-(OH)2D2, at concentrations from 10^−11 M to 10^−7 M. After 6-7 days, medium is removed and stored at −20° C. for prostate specific antigen (PSA) analysis.
The cells from parallel cultures are rinsed, precipitated, and the amount of DNA determined by standard procedures. PSA is measured by standard known methods.

[4] = system: advanced androgen-independent prostate cancer; assay: Treatment of advanced androgen-independent prostate cancer, open-labeled study; format: in vivo, human; conditions: for progression of metastatic disease: after one and two years
Text: Patients with advanced androgen-independent prostate cancer participate in an open- labeled study of 1α,24-(OH)2D2. […] On admission to the study, patients begin a course of therapy with oral 1α,24-(OH)2D2 lasting 26 weeks, while discontinuing any previous use of calcium supplements, vitamin D supplements, and vitamin D hormone replacement therapies. During treatment, the patients are monitored at regular intervals for: (1) hypercalcemia, hyperphosphatemia, hypercalciuria, hyperphosphaturia and other toxicity; (2) evidence of changes in the progression of metastatic disease; and (3) compliance with the prescribed test drug dosage.
The study is conducted in two phases. During the first phase, the maximal tolerated dosage (MTD) of daily oral 1α,24-(OH)2D2 is determined by administering progressively higher dosages to successive groups of patients. All doses are administered in the morning before breakfast. […] Subsequent groups of patients are treated with 50.0, 75.0 and 100.0 μg/day.
During the second phase, patients are treated with 1α,24-(OH)2D2 for 24 months at 0.5 and 1.0 times the MTD.

C=C1/C(=C\C=C2/CCC[C@]3(C)[C@@H]([C@H](C)/C=C/C(C)(O)C(C)C)CC[C@@H]23)C[C@@H](O)C[C@@H]1O (relative stereo) [1α,24-(OH)2D2, 5,6-cis-1α,24-dihydroxyvitamin D2]
cell number (amount of DNA) versus control cultures [1]: significantly fewer cells than the control cultures | cell number (amount of DNA) versus control cultures [2]: significantly fewer cells than the control cultures | PSA expressed as mass of PSA/cell versus control cultures [3]: significantly more PSA than control cultures | bone pain associated with metastatic disease ([4]; MTD for at least six months): significantly diminished | maximum levels of circulating 1α,24-(OH)2D2 ([4]; at the highest dosages): above 100 pg/mL | circulating levels of 1α,25-(OH)2D3 ([4]; during treatment): suppressed, often to undetectable levels | progression of metastatic disease ([4]; higher dosage (1.0 times the MTD)): stable disease and partial or complete remission in many patients | levels of circulating 1α,24-(OH)2D2 versus dosage ([4]; in vivo): increase proportionately with the dosage administered | serum and urine calcium ([4]; in vivo): elevated in a dose responsive manner | progression of metastatic disease ([4]; lower dosage (0.5 times the MTD)): stable disease or partial remission in many patients
